Laboratory results published in ChEMBL document CHEMBL1150535, “Acyclic NK-1 antagonists: 2-benzhydryl-2-aminoethyl ethers” (Bioorg Med Chem Lett, 1994).

Molecular target: Voltage-gated L-type calcium channel (Homo sapiens, UniProt Q13936+Q13698+Q01668+O60840)
Assay: Antagonistic activity at L-type calcium channel by displacement of [3H]diltiazem and enhanced [3H]nitrendipine binding
Format: protein assay

IC50 [µM]	Compound
1.67	NC(=O)CN[C@H](COCc1cc(C(F)(F)F)cc(C(F)(F)F)c1)C(c1ccccc1)c1ccccc1
0.98	Cc1cc(C)cc(COC[C@H](C(c2ccccc2)c2ccccc2)N(C)C)c1
5.5	Cc1cc(C)cc(COCC(NCC(N)=O)C(c2ccccc2)c2ccccc2)c1 (stereo not given)

Compound	IC50 [µM]
COc1ccccc1CN[C@H]1C2CCN(CC2)[C@H]1C(c1ccccc1)c1ccccc1 [CP-96345]	0.24

Molecular target: Substance-P receptor (Homo sapiens, UniProt P25103)
Assay: Binding affinity towards human Tachykinin receptor 1 expressed in CHO cells by the displacement of [125 I] substance P
Format: cell-based

Substance-P receptor, sequence (P25103 whole entry): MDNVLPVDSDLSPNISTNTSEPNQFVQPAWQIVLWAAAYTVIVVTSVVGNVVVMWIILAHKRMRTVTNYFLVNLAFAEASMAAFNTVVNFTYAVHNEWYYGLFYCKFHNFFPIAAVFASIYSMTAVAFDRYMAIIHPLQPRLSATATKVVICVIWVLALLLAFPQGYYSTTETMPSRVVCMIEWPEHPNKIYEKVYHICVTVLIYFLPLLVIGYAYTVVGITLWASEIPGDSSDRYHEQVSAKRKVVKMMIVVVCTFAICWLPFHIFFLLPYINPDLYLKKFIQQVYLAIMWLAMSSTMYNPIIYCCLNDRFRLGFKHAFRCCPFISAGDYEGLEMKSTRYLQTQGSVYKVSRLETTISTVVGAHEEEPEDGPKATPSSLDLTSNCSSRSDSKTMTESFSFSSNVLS

Compound	IC50 [nM]
NC(=O)CNC(COCc1cc(C(F)(F)F)cc(C(F)(F)F)c1)C(c1ccccc1)c1ccccc1 (stereo not given)	0.85
Cc1cc(Br)cc(COCC(N)C(c2ccccc2)c2ccccc2)c1 (stereo not given)	9.7
Cc1ccc(C)c(COCC(N)C(c2ccccc2)c2ccccc2)c1 (stereo not given)	150
NC(=O)CN[C@H](COCc1cc(C(F)(F)F)cc(C(F)(F)F)c1)C(c1ccccc1)c1ccccc1	0.53
NC(COCc1ccccc1)C(c1ccccc1)c1ccccc1 (stereo not given)	367
Cc1cc(C)cc(COCC(NCc2ccccc2)C(c2ccccc2)c2ccccc2)c1 (stereo not given)	82
NC(COCc1cc(Cl)cc(Cl)c1)C(c1ccccc1)c1ccccc1 (stereo not given)	11.3
NC(COCc1cc(Br)cc(Br)c1)C(c1ccccc1)c1ccccc1 (stereo not given)	13.3
Cc1cc(C)cc(COC[C@H](C(c2ccccc2)c2ccccc2)N(C)C)c1	5.5
NC(COCc1cccc(I)c1)C(c1ccccc1)c1ccccc1 (stereo not given)	77
NC(COCc1cccc(Cl)c1)C(c1ccccc1)c1ccccc1 (stereo not given)	75

Further lines, results first:

IC50 [nM]	Compound
14	Cc1cc(C)cc(COC[C@@H](C(c2ccccc2)c2ccccc2)N(C)C)c1
17	Cc1cc(C)cc(COCC(O)C(c2ccccc2)c2ccccc2)c1 (stereo not given)
21	CC(=O)NC(COCc1cc(C)cc(C)c1)C(c1ccccc1)c1ccccc1 (stereo not given)
11	Cc1cc(C)cc(COCC(NC=O)C(c2ccccc2)c2ccccc2)c1 (stereo not given)
55	Cc1cc(C)cc(COCC(NC(C)C)C(c2ccccc2)c2ccccc2)c1 (stereo not given)
4.4	Cc1cc(C)cc(COCC(C(c2ccccc2)c2ccccc2)N(C)C)c1 (stereo not given)
93	Cc1cc(C)cc(COCC(NCC2CC2)C(c2ccccc2)c2ccccc2)c1 (stereo not given)
12.7	CCNC(COCc1cc(C)cc(C)c1)C(c1ccccc1)c1ccccc1 (stereo not given)
2.2	Cc1cc(C)cc(COCC(NCC(N)=O)C(c2ccccc2)c2ccccc2)c1 (stereo not given)
6.8	CNC(COCc1cc(C)cc(C)c1)C(c1ccccc1)c1ccccc1 (stereo not given)
